Results from patent US12213969B2, “2-spiro-5- and 6-hydroxamic acid indanes as HDAC inhibitors” (Valo Health, Inc., priority 2016, dated 2025).

molecular target: T1, Full length human recombinant HDAC6 protein (Homo sapiens, UniProt Q9UBN7); test: In vitro histone deacetylase assay: enzymatic HDAC6 electrophoretic mobility shift assay; format: biochemical; details: peptide substrate RHKK(Ac)-NH2 2 μM, enzyme 1 nM, 25° C., 12 concentrations; read-out: HDAC6 activity range (IC50)
T1 construct: made in house
T1 sequence (Q9UBN7 1-1215): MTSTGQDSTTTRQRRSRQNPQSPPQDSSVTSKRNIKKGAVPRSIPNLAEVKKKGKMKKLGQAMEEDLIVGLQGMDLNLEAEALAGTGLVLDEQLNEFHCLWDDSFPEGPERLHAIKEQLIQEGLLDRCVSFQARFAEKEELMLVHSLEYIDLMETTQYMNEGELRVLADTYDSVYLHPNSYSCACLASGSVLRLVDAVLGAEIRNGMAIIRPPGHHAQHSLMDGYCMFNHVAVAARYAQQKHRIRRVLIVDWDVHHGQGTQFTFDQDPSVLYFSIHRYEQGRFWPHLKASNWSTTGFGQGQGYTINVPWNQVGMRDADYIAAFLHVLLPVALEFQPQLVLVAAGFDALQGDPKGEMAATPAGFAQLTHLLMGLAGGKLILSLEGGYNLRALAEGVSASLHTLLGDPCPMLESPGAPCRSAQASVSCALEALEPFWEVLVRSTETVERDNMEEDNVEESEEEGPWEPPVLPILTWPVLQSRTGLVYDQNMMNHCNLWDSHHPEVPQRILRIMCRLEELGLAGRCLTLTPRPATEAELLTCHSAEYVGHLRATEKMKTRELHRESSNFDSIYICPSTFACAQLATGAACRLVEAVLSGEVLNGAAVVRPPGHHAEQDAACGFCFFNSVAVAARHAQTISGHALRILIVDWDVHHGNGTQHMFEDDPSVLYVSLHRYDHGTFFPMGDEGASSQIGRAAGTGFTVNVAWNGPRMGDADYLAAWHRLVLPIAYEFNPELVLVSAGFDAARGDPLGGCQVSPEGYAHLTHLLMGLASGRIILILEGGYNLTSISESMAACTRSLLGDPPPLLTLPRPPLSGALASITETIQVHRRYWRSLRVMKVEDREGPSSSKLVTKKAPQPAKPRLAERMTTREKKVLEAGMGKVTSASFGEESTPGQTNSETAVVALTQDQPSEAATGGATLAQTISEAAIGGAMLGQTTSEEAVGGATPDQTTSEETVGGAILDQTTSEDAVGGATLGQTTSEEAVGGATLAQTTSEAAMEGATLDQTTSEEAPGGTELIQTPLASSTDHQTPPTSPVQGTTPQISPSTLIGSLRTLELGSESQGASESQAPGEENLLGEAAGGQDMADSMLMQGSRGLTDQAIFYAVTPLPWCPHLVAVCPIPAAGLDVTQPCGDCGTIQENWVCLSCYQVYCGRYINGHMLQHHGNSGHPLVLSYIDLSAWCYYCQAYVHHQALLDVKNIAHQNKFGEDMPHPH
Method: The enzymatic HDAC6 assay was performed using electrophoretic mobility shift assay. Full length human recombinant HDAC6 protein was expressed in baculoviral system and purified by affinity chromatography. The enzymatic reactions were assembled in 384 well plates in a total volume of 25 μL in a reaction buffer composing: 100 mM HEPES, pH 7.5, 25 mM KCl, 0.1% bovine serum albumin, 0.01% Triton X-100, 1% DMSO (from compounds) 2 μM of the fluorescently labeled peptide substrate and enzyme. The enzyme was added at a final concentration of 1 nM. The peptide substrate RHKK(Ac)-NH2 was used. The compounds were tested at 12 concentrations spaced by 3× dilution intervals. Negative control samples (0%-inhibition in the absence of inhibitor) and positive control samples (100%-inhibition) were assembled in replicates of four in each assay plate. The reactions were incubated at 25° C. and quenched by the addition of 45 μL of termination buffer (100 mM HEPES, pH 7.5, 0.01% Triton X-100, 0.05% SDS).
The terminated assay plates were analyzed on LabChip® 3000 microfluidic electrophoresis instrument (Perkin Elmer/Caliper Life Sciences). The fluorescence intensity of the electrophoretically separated de-acetylated product and substrate peptide was measured. Activity in each sample was determined as the product to sum ratio (PSR): P/(S+P), where P is the peak height of the product peptide and S is the peak height of the substrate peptide. Percent inhibition (Pinh) is determined using the following equation:
Pinh=(PSR0%−PSRinh)/(PSR0%−PSR100%)*100, where PSRinh is the product sum ratio in the presence of inhibitor, PSR0% is the average product sum ration in the absence of inhibitor and PSR100% is the average product sum ratio in 100%-inhibition control samples. The IC50 values of inhibitors were determined by fitting the %-inhibition curves with 4 parameter dose-response model using XLfit 4 software.
As set forth in Table-7, below, IC50 values are defined as follows: IC50≤0.01 μM (+++); IC50>0.01 μM and ≤0.05 μM (++); IC50>0.05 μM (+).

| SMILES | IC50 |
| --- | --- |
| CCN1CC[C@]2(Cc3ccc(C(=O)NO)cc3C2)C1=O [Compound I-5, (R)-1′-ethyl-N-hydroxy-2′-oxo-1,3-dihydrospiro[indene-2,3′-pyrrolidine]-5-carboxamide] | 10 to 50 nM |
| O=C(NO)c1ccc2c(c1)C[C@]1(CCCN(Cc3ccccc3)C1=O)C2 [Compound I-35, (S)-1′-benzyl-N-hydroxy-2′-oxo-1,3-dihydrospiro[indene-2,3′-piperidine]-5-carboxamide] | 10 to 50 nM |
| Cc1ccccc1CN1CC[C@]2(Cc3ccc(C(=O)NO)cc3C2)C1=O [Compound I-9, (R)—N-hydroxy-1′-(2-methylbenzyl)-2′-oxo-1,3-dihydrospiro[indene-2,3′-pyrrolidine]-5-carboxamide] | 10 to 50 nM |
| O=C(NO)c1ccc2c(c1)C[C@]1(CCN(C(=O)c3ccccc3)C1)C2 [Compound I-31, (S)-1′-benzoyl-N-hydroxy-1,3-dihydrospiro[indene-2,3′-pyrrolidine]-5-carboxamide] | ≤ 10 nM |
| CC(=O)N1CC[C@]2(Cc3ccc(C(=O)NO)cc3C2)C1 [Compound I-28, (R)-1′-acetyl-N-hydroxy-1,3-dihydrospiro[indene-2,3′-pyrrolidine]-5-carboxamide] | 10 to 50 nM |
| CN1CC[C@@]2(Cc3ccc(C(=O)NO)cc3C2)C1=O [Compound I-2, (S)—N-hydroxy-1′-methyl-2′-oxo-1,3-dihydrospiro[indene-2,3′-pyrrolidine]-5-carboxamide] | 10 to 50 nM |
| O=C(NO)c1ccc2c(c1)C[C@]1(CCN(c3ccncc3)C1=O)C2 [Compound I-22, (S)—N-hydroxy-2′-oxo-1′-(pyridin-4-yl)-1,3-dihydrospiro[indene-2,3′-pyrrolidine]-5-carboxamide] | 10 to 50 nM |
| CN1CC[C@@]2(Cc3ccc(C(=O)NO)cc3C2)C1 [Compound I-25, (S)—N-hydroxy-1′-methyl-1,3-dihydrospiro[indene-2,3′-pyrrolidine]-5-carboxamide] | > 50 nM |
| O=C(NO)c1ccc2c(c1)C[C@@]1(CCN(c3ccc(F)cc3)C1=O)C2 [Compound I-15, (R)-1′-(4-fluorophenyl)-N-hydroxy-2′-oxo-1,3-dihydrospiro[indene-2,3′-pyrrolidine]-5-carboxamide] | 10 to 50 nM |
| CC(=O)N1CC[C@@]2(Cc3ccc(C(=O)NO)cc3C2)C1 [Compound I-29, (S)-1′-acetyl-N-hydroxy-1,3-dihydrospiro[indene-2,3′-pyrrolidine]-5-carboxamide] | 10 to 50 nM |
| O=C(NO)c1ccc2c(c1)C[C@@]1(CCN(c3ccccc3)C1=O)C2 [Compound I-13, (R)—N-hydroxy-2′-oxo-1′-phenyl-1,3-dihydrospiro[indene-2,3′-pyrrolidine]-5-carboxamide] | 10 to 50 nM |
| O=C(NO)c1ccc2c(c1)C[C@]1(CCN(c3cccnc3)C1=O)C2 [Compound I-18, (S)—N-hydroxy-2′-oxo-1′-(pyridin-3-yl)-1,3-dihydrospiro[indene-2,3′-pyrrolidine]-5-carboxamide] | 10 to 50 nM |
| Cc1ccccc1CN1CC[C@@]2(Cc3ccc(C(=O)NO)cc3C2)C1=O [Compound I-10, (S)—N-hydroxy-1′-(2-methylbenzyl)-2′-oxo-1,3-dihydrospiro[indene-2,3′-pyrrolidine]-5-carboxamide] | 10 to 50 nM |
| O=C(NO)c1ccc2c(c1)C[C@@]1(CCN(Cc3ccccc3)C1=O)C2 [Compound I-11, (R)-1′-benzyl-N-hydroxy-2′-oxo-1,3-dihydrospiro[indene-2,3′-pyrrolidine]-5-carboxamide] | ≤ 10 nM |
| O=C(NO)c1ccc2c(c1)C[C@@]1(CCCN(c3ccccc3)C1=O)C2 [Compound I-36, (R)—N-hydroxy-2′-oxo-1′-phenyl-1,3-dihydrospiro[indene-2,3′-piperidine]-5-carboxamide] | ≤ 10 nM |
| O=C(NO)c1ccc2c(c1)C[C@]1(CCCN(c3ccccc3)C1=O)C2 [Compound I-37, (S)—N-hydroxy-2′-oxo-1′-phenyl-1,3-dihydrospiro[indene-2,3′-piperidine]-5-carboxamide] | 10 to 50 nM |

Next, values leading:

| IC50 | SMILES |
| --- | --- |
| > 50 nM | CC(C)N1CC[C@@]2(Cc3ccc(C(=O)NO)cc3C2)C1=O [Compound I-4, (S)—N-hydroxy-1′-isopropyl-2′-oxo-1,3-dihydrospiro[indene-2,3′-pyrrolidine]-5-carboxamide] |
| 10 to 50 nM | O=C(NO)c1ccc2c(c1)C[C@]1(CCN(c3ccccc3)C1=O)C2 [Compound I-14, (S)—N-hydroxy-2′-oxo-1′-phenyl-1,3-dihydrospiro[indene-2,3′-pyrrolidine]-5-carboxamide] |
| 10 to 50 nM | CC(C)CN1CC[C@@]2(Cc3ccc(C(=O)NO)cc3C2)C1=O [Compound I-8, (S)—N-hydroxy-1′-isobutyl-2′-oxo-1,3-dihydrospiro[indene-2,3′-pyrrolidine]-5-carboxamide] |
| 10 to 50 nM | O=C(NO)c1ccc2c(c1)C[C@@]1(CCN(c3ccncc3)C1=O)C2 [Compound I-21, (R)—N-hydroxy-2′-oxo-1′-(pyridin-4-yl)-1,3-dihydrospiro[indene-2,3′-pyrrolidine]-5-carboxamide] |
| 10 to 50 nM | CC(C)N1CC[C@]2(Cc3ccc(C(=O)NO)cc3C2)C1=O [Compound I-3, (R)—N-hydroxy-1′-isopropyl-2′-oxo-1,3-dihydrospiro[indene-2,3′-pyrrolidine]-5-carboxamide] |
| 10 to 50 nM | O=C(NO)c1ccc2c(c1)C[C@@]1(CCN(Cc3ccccc3)C1)C2 [Compound I-26, (R)-1′-benzyl-N-hydroxy-1,3-dihydrospiro[indene-2,3′-pyrrolidine]-5-carboxamide] |
| 10 to 50 nM | CN1CC[C@]2(Cc3ccc(C(=O)NO)cc3C2)C1 [Compound I-24, (R)—N-hydroxy-1′-methyl-1,3-dihydrospiro[indene-2,3′-pyrrolidine]-5-carboxamide] |
| 10 to 50 nM | CC(C)CN1CC[C@]2(Cc3ccc(C(=O)NO)cc3C2)C1=O [Compound I-7, (R)—N-hydroxy-1′-isobutyl-2′-oxo-1,3-dihydrospiro[indene-2,3′-pyrrolidine]-5-carboxamide] |
| ≤ 10 nM | O=C(NO)c1ccc2c(c1)C[C@@]1(CCN(C(=O)c3ccccc3)C1)C2 [Compound I-30, (R)-1′-benzoyl-N-hydroxy-1,3-dihydrospiro[indene-2,3′-pyrrolidine]-5-carboxamide] |
| 10 to 50 nM | O=C(NO)c1ccc2c(c1)C[C@@]1(CCN(c3ccccn3)C1=O)C2 [Compound I-19, (R)—N-hydroxy-2′-oxo-1′-(pyridin-2-yl)-1,3-dihydrospiro[indene-2,3′-pyrrolidine]-5-carboxamide] |
| 10 to 50 nM | O=C(NO)c1ccc2c(c1)C[C@]1(CCN(Cc3ccccc3)C1)C2 [Compound I-27, (S)-1′-benzyl-N-hydroxy-1,3-dihydrospiro[indene-2,3′-pyrrolidine]-5-carboxamide] |
| 10 to 50 nM | CN1CC[C@]2(Cc3ccc(C(=O)NO)cc3C2)C1=O [Compound I-1, (R)—N-hydroxy-1′-methyl-2′-oxo-1,3-dihydrospiro[indene-2,3′-pyrrolidine]-5-carboxamide] |
